Reference: patent US11065220B2, “Anti-pathogenic therapeutic compositions” (Wintermute Biomedical, Inc., priority 2017, dated 2021)

Assays:
MRSA [1] = assay: Iodonitrotetrazolium chloride assay of MRSA growth, various anthraquinones with L-Arg and UCA; type: cell-based, Staphylococcus aureus; conditions: FIG. 20
Procedure: Although the WT13-13 example compound described herein uses cassic acid (rhein) as the anthraquinones, other anthraquinones may be used. This is illustrated in FIG. 20, for example. In FIG. 20, antibiotic effects of other anthraquinones were tested against MRSA. As shown, identical ratios of L-Arg and UCA were combined with various anthraquinones, including cassic acid (Rhein), aloe-emodin (AloeE), and chrysophanol (Chyrs.). Formulations were tested for MRSA growth using an iodonitrotetrazolium chloride assay. Each compound was MRSA was assayed in media control and subtracted from the values taken from the wells containing MRSA to control for colorimetric alterations. Each MRSA well contained 100,000 CFUs in 100 microliters.
As shown in FIG. 20 discussed above, in addition to cassic acid, other anthraquinones were tested for activity using an iodonitrotetrazolium chloride assay. Each anthraquinone was assayed for activity against one or more pathogen. In FIG. 20 activity was tested against MRSA growth.

MRSA [2] = assay: In-vitro resistance study, repeated sub-inhibitory exposures of MRSA; type: cell-based, Staphylococcus aureus; conditions: sub-inhibitory concentrations
Procedure: A number of standard in-vitro resistance studies were conducted to predict the onset and mechanism of resistance for an anti-pathogenic compound such as WT13-13. The standard test comprises exposing bacteria to sub-inhibitory concentrations of an antibiotic over a number of exposures and monitoring the bacterial growth. As the bacteria develop resistance to the drug, the growth rate will rise. Tests were performed by treating MRSA with sub-inhibitory concentrations of both WT13-13 and mupirocin (separately) in order to study the behavior of WT13-13 and compare with that of mupirocin. The horizontal dotted lines represent the ideal, non-resistant behavior. That is, if an antibiotic were effective and the bacteria not developing resistance to it, its growth curve would be flat and follow the dotted line. However, all antibiotics to date experience bacterial resistance and trend upwards of the dotted line, towards the MRSA-only control line (if an antibiotic reaches the control line, it is completely ineffective and the bacteria is resistant to the antibiotic). […] The shading 1201 highlights this behavior. […] The shading 1203 highlights this behavior. […] Such “anti-resistance” has not been reported in an antibiotic before.

Structure (SMILES): O=C1c2cccc(O)c2C(=O)c2c(O)cccc21 [dantron]
- inhibition of MRSA growth (MRSA [1]): Inhibition of growth

Structure (SMILES): C/C(=C\C(=O)OCCCCCCCCC(=O)O)C[C@@H]1OC[C@H](C[C@@H]2O[C@H]2[C@@H](C)[C@H](C)O)[C@@H](O)[C@H]1O [mupirocin]
- development of resistance over multiple exposures (growth trend) (MRSA [2]): trends upwards towards the control line

Structure (SMILES): O=C(O)C(=O)O [oxcalic acid]
- inhibition of MRSA growth (MRSA [1]): Inhibition of growth
